Test results taken from patent publication US11083196B2, “Microbiocidal oxadiazole derivatives” (SYNGENTA PARTICIPATIONS AG, priority 2016, dated 2021).

Key:
[1] = test system: Glomerella lagenarium (Colletotrichum lagenarium); assay: Fungicidal activity against Glomerella lagenarium (Colletotrichum lagenarium), liquid culture / cucumber / preventative (anthracnose); format: cell-based; conditions: Colletotrichum orbiculare, liquid culture (PDB), growth inhibition measured photometrically 3-4 days after application, compared to untreated control
Description: Mycelia fragments or conidia suspensions of a fungus, prepared either freshly from liquid cultures of the fungus or from cryogenic storage, are directly mixed into nutrient broth. DMSO solutions of the test compound (max. 10 mg/ml) is diluted with 0.025% Tween20 by a factor of 50 and 10 μl of this solution is pipetted into a microtiter plate (96-well format). The nutrient broth containing the fungal spores/mycelia fragments is then added to give an end concentration of the tested compound. The test plates are incubated in the dark at 24° C. and 96% relative humidity. The inhibition of fungal growth is determined photometrically after 2 to 7 days, depending on the pathosystem, and percent antifungal activity relative to the untreated check is calculated. Conidia of the fungus from cryogenic storage are directly mixed into nutrient broth (PDB potato dextrose broth). After placing a (DMSO) solution of test compound into a microtiter plate (96-well format), the nutrient broth containing the fungal spores is added. The test plates are incubated at 24° C. and the inhibition of growth is measured photometrically 3-4 days after application.

[2] = test system: Puccinia recondita f. sp. tritici; assay: Fungicidal activity against Puccinia recondita f. sp. tritici / wheat / leaf disc curative (brown rust); format: in vivo; conditions: foliar, 144 h, wheat leaf segments cv. Kanzler, applied 1 day after inoculation, assessed 6-8 days after application, compared to untreated control
Description: Leaf disks or leaf segments of various plant species are cut from plants grown in a greenhouse. The cut leaf disks or segments are placed in multiwell plates (24-well format) onto water agar. The leaf disks are sprayed with a test solution before (preventative) or after (curative) inoculation. Compounds to be tested are prepared as DMSO solutions (max. 10 mg/ml) which are diluted to the appropriate concentration with 0.025% Tween20 just before spraying. The inoculated leaf disks or segments are incubated under defined conditions (temperature, relative humidity, light, etc.) according to the respective test system. A single evaluation of disease level is carried out 3 to 14 days after inoculation, depending on the pathosystem. Percent disease control relative to the untreated check leaf disks or segments is then calculated. Wheat leaf segments cv. Kanzler are placed on agar in multiwell plates (24-well format). The leaf segments are inoculated with a spore suspension of the fungus. Plates are stored in darkness at 19° C. and 75% rh. The formulated test compound diluted in water is applied 1 day after inoculation. The leaf segments are incubated at 19° C. and 75% rh under a light regime of 12 h light/12 h darkness in a climate cabinet and the activity of a compound is assessed as percent disease control compared to untreated when an appropriate level of disease damage appears in untreated check leaf segments (6-8 days after application).

[3] = test system: Puccinia recondita f. sp. tritici; assay: Fungicidal activity against Puccinia recondita f. sp. tritici / wheat / leaf disc preventative (brown rust); format: in vivo; conditions: foliar, 168 h, wheat leaf segments cv. Kanzler, inoculated 1 day after application, assessed 7-9 days after application, compared to untreated control
Description: Leaf disks or leaf segments of various plant species are cut from plants grown in a greenhouse. The cut leaf disks or segments are placed in multiwell plates (24-well format) onto water agar. The leaf disks are sprayed with a test solution before (preventative) or after (curative) inoculation. Compounds to be tested are prepared as DMSO solutions (max. 10 mg/ml) which are diluted to the appropriate concentration with 0.025% Tween20 just before spraying. The inoculated leaf disks or segments are incubated under defined conditions (temperature, relative humidity, light, etc.) according to the respective test system. A single evaluation of disease level is carried out 3 to 14 days after inoculation, depending on the pathosystem. Percent disease control relative to the untreated check leaf disks or segments is then calculated. Wheat leaf segments cv. Kanzler are placed on agar in multiwell plates (24-well format) and sprayed with the formulated test compound diluted in water. The leaf disks are inoculated with a spore suspension of the fungus 1 day after application. The inoculated leaf segments are incubated at 19° C. and 75% rh under a light regime of 12 h light/12 h darkness in a climate cabinet and the activity of a compound is assessed as percent disease control compared to untreated when an appropriate level of disease damage appears in untreated check leaf segments (7-9 days after application).

melting point | Compound | inhibition of growth at 20 ppm [1] | pest or weed control at 200 ppm [2] | pest or weed control at 200 ppm [3]
70 to 75 °C | CC1(C)COC(c2ccc(-c3noc(C(F)(F)F)n3)cc2)=N1 [Compound A-2, 3-[4-(4,4-dimethyl-5H-oxazol-2-yl)phenyl]-5-(trifluoromethyl)-1,2,4-oxadiazole] | ≥ 80% | ≥ 80% | ≥ 80%
 | COC(=O)C1CC(c2ccc(-c3noc(C(F)(F)F)n3)cc2)=NO1 (stereo not shown) [Compound A-8, methyl 3-[4-[5-(trifluoromethyl)-1,2,4-oxadiazol-3-yl]phenyl]-4,5-dihydroisoxazole-5-carboxylate] | ≥ 80% |  | ≥ 80%
 | CC1(C)CC(=O)NC(c2ccc(-c3noc(C(F)(F)F)n3)cc2)O1 (stereo not shown) [Compound A-11, 6,6-dimethyl-2-[4-[5-(trifluoromethyl)-1,2,4-oxadiazol-3-yl]phenyl]-1,3-oxazinan-4-one] | ≥ 80% | ≥ 80% | ≥ 80%
 | CC1=NOC(C)(c2ccc(-c3noc(C(F)(F)F)n3)cc2)C1 (stereo not shown) [Compound A-13, 3-[4-(3,5-dimethyl-4H-isoxazol-5-yl)phenyl]-5-(trifluoromethyl)-1,2,4-oxadiazole] | ≥ 80% | ≥ 80% | ≥ 80%
 | O=C(NC1CSC(c2ccc(-c3noc(C(F)(F)F)n3)c(F)c2)=N1)C1CC1 (stereo not shown) [Compound A-22, N-[2-[3-fluoro-4-[5-(trifluoromethyl)-1,2,4-oxadiazol-3-yl]phenyl]-4,5-dihydrothiazol-4-yl]cyclopropanecarboxamide] | ≥ 80% | ≥ 80% | 
144 to 155 °C | Cc1ccccc1C(=O)NC1CSC(c2ccc(-c3noc(C(F)(F)F)n3)c(F)c2)=N1 (stereo not shown) [Compound A-23, N-[2-[3-fluoro-4-[5-(trifluoromethyl)-1,2,4-oxadiazol-3-yl]phenyl]-4,5-dihydrothiazol-4-yl]-2-methyl-benzamids] | ≥ 80% |  | ≥ 80%
120 to 165 °C | CN(C)C(=O)C(=O)NC1CSC(c2ccc(-c3noc(C(F)(F)F)n3)c(F)c2)=N1 (stereo not shown) [Compound A-24, N-[2-[3-fluoro-4-[5-(trifluoromethyl)-1,2,4-oxadiazol-3-yl]phenyl]-4,5-dihydrothiazol-4-yl]-N′,N′-dimethyl-oxamide] | ≥ 80% | ≥ 80% | ≥ 80%
141 to 175 °C | COCC(=O)NC1CSC(c2ccc(-c3noc(C(F)(F)F)n3)c(F)c2)=N1 (stereo not shown) [Compound A-25, N-[2-[3-fluoro-4-[5-(trifluoromethyl)-1,2,4-oxadiazol-3-yl]phenyl]-4,5-dihydrothiazol-4-yl]-2-methoxy-acetamide] | ≥ 80% |  | ≥ 80%
 | CC(C)(C)[S+]([O-])NC1CSC(c2ccc(-c3noc(C(F)(F)F)n3)c(F)c2)=N1 (stereo not shown) [Compound A-26, N-[2-[3-fluoro-4-[5-(trifluoromethyl)-1,2,4-oxadiazol-3-yl]phenyl]-4,5-dihydro-thiazol-4-yl]-2-methyl-propane-2-sulfinamide] | ≥ 80% | ≥ 80% | ≥ 80%
117.7 to 118.6 °C | CS(=O)(=O)N1CCCC1c1ccc(-c2noc(C(F)(F)F)n2)cc1 (stereo not shown) [Compound A-30, 3-[4-(1-methylsulfonyl-pyrrolidin-2-yl)phenyl]-5-(trifluoromethyl)-1,2,4-oxadiazole] | ≥ 80% | ≥ 80% | ≥ 80%
 | CON(C)C(=O)N1CCCC1c1ccc(-c2noc(C(F)(F)F)n2)cc1 (stereo not shown) [Compound A-31, N-methoxy-N-methyl-2-[4-[5-(trifluoromethyl)-1,2,4-oxadiazol-3-yl]phenyl]pyrrolidine-1-carboxamide] | ≥ 80% | ≥ 80% | ≥ 80%
 | COC(=O)N1CCCC1c1ccc(-c2noc(C(F)(F)F)n2)cc1 (stereo not shown) [Compound A-32, methyl 2-[4-[5-(trifluoromethyl)-1,2,4-oxadiazol-3-yl]phenyl]pyrrolidine-1-carboxylate] | ≥ 80% | ≥ 80% | 
 | COCC(=O)N1CCCC1c1ccc(-c2noc(C(F)(F)F)n2)cc1 (stereo not shown) [Compound A-33, 2-methoxy-1-[2-[4-[5-(trifluoromethyl)-1,2,4-oxadiazol-3-yl]phenyl]pyrrolidin-1-yl]ethanone] | ≥ 80% | ≥ 80% | ≥ 80%
 | O=C(N1CCCC1c1ccc(-c2noc(C(F)(F)F)n2)cc1)n1ccnc1 (stereo not shown) [Compound A-35, imidazol-1-yl-[2-[4-[5-(trifluoromethyl)-1,2,4-oxadiazol-3-yl]phenyl]pyrrolidin-1-yl]methanone] | ≥ 80% | ≥ 80% | ≥ 80%
 | CCC(=O)N1CCCC1c1ccc(-c2noc(C(F)(F)F)n2)cc1 (stereo not shown) [Compound A-37, 1-[2-[4-[5-(trifluoromethyl)-1,2,4-oxadiazol-3-yl]phenyl]pyrrolidin-1-yl]propan-1-one] | ≥ 80% | ≥ 80% | 
 | CC(=O)N1CCCC1c1ccc(-c2noc(C(F)(F)F)n2)cc1 (stereo not shown) [Compound A-38, 1-[2-[4-[5-(trifluoromethyl)-1,2,4-oxadiazol-3-yl]phenyl]pyrrolidin-1-yl]ethanone] | ≥ 80% | ≥ 80% | ≥ 80%
94 to 97 °C | FC(F)(F)c1nc(-c2ccc(-c3ncco3)cc2)no1 [Compound C-3, 3-(4-oxazol-2-ylphenyl)-5-(trifluoromethyl)-1,2,4-oxadiazole] |  | ≥ 80% | ≥ 80%
89 to 90 °C | Cc1csc(-c2ccc(-c3noc(C(F)(F)F)n3)cc2)n1 [Compound C-8, 3-[4-(4-methylthiazol-2-yl)phenyl]-5-(trifluoromethyl)-1,2,4-oxadiazole] | ≥ 80% | ≥ 80% | 
91 to 92 °C | FC(F)(F)c1nc(-c2ccc(-c3nc(CCl)cs3)cc2)no1 [Compound C-9, 3-[4-[4-(chloromethyl)thiazol-2-yl]phenyl]-5-(trifluoromethyl)-1,2,4-oxadiazole] | ≥ 80% |  | ≥ 80%
 | Cc1cc(-c2ccc(-c3noc(C(F)(F)F)n3)cc2)on1 [Compound C-11, 3-[4-(3-methylisoxazol-5-yl)phenyl]-5-(trifluoromethyl)-1,2,4-oxadiazole] |  | ≥ 80% | ≥ 80%
135 to 140 °C | Nc1cccc(-c2ccc(-c3noc(C(F)(F)F)n3)cc2)n1 [Compound D-15, 6-[4-[5-(trifluoromethyl)-1,2,4-oxadiazol-3-yl]phenyl]pyridin-2-amine] | ≥ 80% |  | ≥ 80%
230 to 235 °C | O=C(Nc1cc(-c2ccc(-c3noc(C(F)(F)F)n3)cc2)ccn1)C(F)(F)F [Compound D-19, 2,2,2-trifluoro-N-[4-[4-[5-(trifluoromethyl)-1,2,4-oxadiazol-3-yl]phenyl]-2-pyridyl]acetamide] | ≥ 80% |  | ≥ 80%
